Read-outs that look alike come from different tables or passages of the source.
Experiments:
taenia coli = target: T1, taenia coli (Cavia porcellus, UniProt O35505); experiment: Calcium antagonist activity (pA2), isolated guinea-pig taenia coli; conditions: 5 cases, read-out: pA2 (mean ± standard error) of calcium antagonist activity (converted)
T1 construct: a test was conducted using isolated taenia colis about 2 cm long; from tissue; host or cells: isolated guinea-pig taenia coli
Method: (§1) Male guinea-pigs weighing 350-450 g each were slaughtered and a test was conducted using isolated taenia colis about 2 cm long. A taenia coli was suspended in a Magnus chamber (Locke solution, 25°±2° C., aerated) and the contractile response of the taenia coli was recodered through an isotonic transducer. To the decalcified taenia coli was cumulatively added 0.1 to 100 mM of calcium in the presence of 6×10^-3 g/ml of K^+ to obtain a dose-contraction curve for calcium and, after the taenia coli was decalcified again, a dose-contraction curve for calcium was determined in the presence of the test compound. Based on the difference between the responses, the pA2 of calcium antagonist activity of the test compound was computed.

[1] = test system: isolated guinea-pig heart; experiment: Action on coronary blood flow, isolated guinea-pig heart (Langendorff); conditions: Cavia porcellus, dosage 10 γ/heart, read-out: Maximum increase in coronary flow (Δ% ± standard error)
Method: Male guinea-pigs with body weights from 400 to 500 g were slaughtered and promptly thoractomized. After the ascending aorta was cannulated, the heart was enucleated. By the method of Langendorff, this isolated heart was perfused with the Krebs-Henseleit fluid oxygenated with a gaseous mixture of 95% O2 and 5% CO2 at a fluid temperature of 34°±1° C. and perfusion pressure of 60 cm H2 O, and the test compound was infused. The coronary flows before and after infusion were measured and the percent gain in coronary flow was obtained. The coronary flow was measured with a square-wave electromagnetic flowmeter (Nihon Kohden, MF-26) with an extracorporeal probe (Nihon Kohden, FE) set at the top of the cannula and recorded with a multipurpose polygraph (Nihon Kohden, RM-85). The test compound was dissolved in propylene glycol to a concentration of 100 γ/ml and 0.1 ml of the solution was infused at the rate of 0.1 ml/min.

[2] = Acute toxicity test in mice, intraperitoneal; conditions: mouse, in vivo, ip, male ddY mice, deaths within 72 hours
Method: An acute toxicity test was performed in male ddY mice (in groups of 5 animals, body weights 20±2 g) by the intraperitoneal administration of a test compound.
A suspension of each compound in 0.5% carboxymethylcellulose was administered, the deaths within 72 hours were counted and the LD50 values were calculated by the method of Weil.

[3] = target: T2, taenia coli (Cavia porcellus); experiment: Calcium antagonist activity (pA2), isolated guinea-pig taenia coli
T2 construct: a test was conducted using isolated taenia colis about 2 cm long; from tissue; host or cells: isolated guinea-pig taenia coli
T2 sequence (O35505 whole entry): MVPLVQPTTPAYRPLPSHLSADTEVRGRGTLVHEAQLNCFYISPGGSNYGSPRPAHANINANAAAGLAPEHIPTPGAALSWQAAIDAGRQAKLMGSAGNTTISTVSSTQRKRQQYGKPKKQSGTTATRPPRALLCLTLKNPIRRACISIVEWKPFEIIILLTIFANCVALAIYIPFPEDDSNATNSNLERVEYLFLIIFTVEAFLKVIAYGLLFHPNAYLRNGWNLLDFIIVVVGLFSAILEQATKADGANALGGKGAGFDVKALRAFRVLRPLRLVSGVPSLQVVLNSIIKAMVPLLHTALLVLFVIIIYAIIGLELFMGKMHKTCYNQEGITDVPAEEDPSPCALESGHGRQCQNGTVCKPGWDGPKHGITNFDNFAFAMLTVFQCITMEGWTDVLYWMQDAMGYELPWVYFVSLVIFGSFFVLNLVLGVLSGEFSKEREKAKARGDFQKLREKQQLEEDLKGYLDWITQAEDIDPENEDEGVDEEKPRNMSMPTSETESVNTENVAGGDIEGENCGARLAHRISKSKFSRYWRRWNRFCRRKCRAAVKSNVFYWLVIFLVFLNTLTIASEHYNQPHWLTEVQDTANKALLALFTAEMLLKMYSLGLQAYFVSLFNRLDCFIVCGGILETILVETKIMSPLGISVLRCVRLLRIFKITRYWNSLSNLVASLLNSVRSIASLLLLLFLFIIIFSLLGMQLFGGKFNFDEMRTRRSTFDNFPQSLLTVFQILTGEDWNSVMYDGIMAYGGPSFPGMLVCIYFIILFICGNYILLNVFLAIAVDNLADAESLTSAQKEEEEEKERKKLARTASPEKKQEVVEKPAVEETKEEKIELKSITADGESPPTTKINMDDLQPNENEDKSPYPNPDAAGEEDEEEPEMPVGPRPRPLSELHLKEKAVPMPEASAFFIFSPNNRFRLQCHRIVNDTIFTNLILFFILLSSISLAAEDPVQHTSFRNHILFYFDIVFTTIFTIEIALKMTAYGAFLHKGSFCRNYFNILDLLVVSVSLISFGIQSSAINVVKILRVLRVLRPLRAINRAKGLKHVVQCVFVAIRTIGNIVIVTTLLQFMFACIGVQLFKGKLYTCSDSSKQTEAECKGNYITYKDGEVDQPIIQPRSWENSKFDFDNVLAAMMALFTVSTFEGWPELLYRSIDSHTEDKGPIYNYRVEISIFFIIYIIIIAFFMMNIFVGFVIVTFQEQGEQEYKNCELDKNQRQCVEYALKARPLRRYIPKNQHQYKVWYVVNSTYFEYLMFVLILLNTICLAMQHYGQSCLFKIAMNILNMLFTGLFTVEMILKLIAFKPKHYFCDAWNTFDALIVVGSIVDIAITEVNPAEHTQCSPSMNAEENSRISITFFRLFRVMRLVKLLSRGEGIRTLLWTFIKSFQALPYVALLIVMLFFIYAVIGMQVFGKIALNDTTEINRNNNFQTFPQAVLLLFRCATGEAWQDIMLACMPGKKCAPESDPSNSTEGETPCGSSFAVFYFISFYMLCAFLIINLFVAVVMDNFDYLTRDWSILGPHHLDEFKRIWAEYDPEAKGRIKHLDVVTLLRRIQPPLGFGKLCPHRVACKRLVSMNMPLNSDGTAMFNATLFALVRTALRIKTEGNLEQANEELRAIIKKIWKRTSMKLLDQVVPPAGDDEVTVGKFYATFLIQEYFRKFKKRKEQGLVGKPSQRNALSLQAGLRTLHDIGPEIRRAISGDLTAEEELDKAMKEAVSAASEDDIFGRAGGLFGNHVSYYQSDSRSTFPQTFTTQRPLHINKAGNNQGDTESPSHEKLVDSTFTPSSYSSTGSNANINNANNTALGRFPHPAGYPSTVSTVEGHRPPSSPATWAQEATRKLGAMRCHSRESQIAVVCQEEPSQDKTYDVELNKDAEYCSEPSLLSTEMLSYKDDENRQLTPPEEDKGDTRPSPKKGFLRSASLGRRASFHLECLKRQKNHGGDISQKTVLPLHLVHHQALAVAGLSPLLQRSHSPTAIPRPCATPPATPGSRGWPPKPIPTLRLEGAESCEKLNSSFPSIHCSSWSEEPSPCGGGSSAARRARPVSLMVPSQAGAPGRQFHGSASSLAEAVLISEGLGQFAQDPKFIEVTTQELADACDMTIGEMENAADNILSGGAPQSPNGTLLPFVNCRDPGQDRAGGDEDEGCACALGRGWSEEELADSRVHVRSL
Method: as §1

[4] = test system: coronary flow and blood pressure; experiment: Action on coronary flow and blood pressure (intravenous administration into dogs); type: in vivo, dog; conditions: 0.2 mg/kg
Method: Dogs weighing 11 to 24 kg were anaesthetized with pentobarbital sodium (35 mg/kg, intraperitoneal) and, under supportive respiration, a right thoractomy was performed by removing the fourth rib. The pericardial membrane was then incised to expose the heart. The coronary sinus flow was measured with a cannula inserted from the right auricle into the coronary sinus and connected to an electromagnetic flowmeter (Nihon Kohden K.K., MF-26.) The outflowing blood was returned to the femoral vein through a rubber tubing.
The blood pressure was measured with a pressure transducer (Nihon Kohden K.K., MPU-0.5) connected to the cannula inserted into the femoral artery, and was recorded with a multipurpose polygraph (Nihon Kohden K.K., RM-85) which also recorded the coronary blood flow. The heart rate was calculated based on the electrocardiogram. The test compound was dissolved in dog serum and injected into the femoral vein.

[5] = test system: coronary flow and blood pressure; experiment: Activity on intraduodenal administration to dogs (coronary flow, blood pressure, heart rate); type: in vivo, dog; conditions: 10 mg/kg
Method: Dogs weighing 12 to 22 kg were anaesthetized with pentobarbital sodium [35 mg/kg, i.p.] and under supportive respiration, a left thoractomy was performed at the fourth interspace. The pericardium was incised to expose the heart and the blood flow through circumflex branch of left coronary was measured with an electromagnetic flowmeter (Nihon Kohden K.K., MF-26). The blood pressure was measured from a cannula inserted into the carotid artery through a pressure transducer (Nihon Kohden K.K., MPU-0.5), while the heart rate was calculated based on the electrocardiogram. The abdomen was sutured with the end of the cannula left out of the body and the test compound was administered. The test compound was diluted with 0.5% CMC to a concentraion of 10 mg/ml and administered at a dose of 10 mg/kg.

[6] = time after administration 5 (unit not given)
[7] = time after administration 30 (unit not given)
[8] = time after administration 60 (unit not given)
[9] = time after administration 120 (unit not given)

T1 sequence (O35505 whole entry): as above

## CC(C)OP(=O)(Cc1ccc(-c2nc3ccccc3s2)cc1)OC(C)C [1-(benzothiazol-2-yl)-4-di-iso-propyloxyphosphinylmethylbenzene]
Taenia coli; test compound 3 × 10^-6 g/ml
  Kb: 776 nM
[1]
  activation at 10 µg/heart: 90.7 ± 31.7%
[2]
  LD50 at 72 h: 1660 mg/kg

## CCCCOP(=O)(Cc1ccc(-c2nc3ccccc3s2)cc1)OCCCC [1-(benzothiazol-2-yl)-4-di-n-butyloxyphosphinylmethylbenzene]
[1]
  activation at 10 µg/heart: 65.1 ± 22.8%
[2]
  LD50 at 72 h: > 2250 mg/kg

## CCCOP(=O)(Cc1ccc(-c2nc3ccccc3s2)cc1)OCCC [1-(benzothiazol-2-yl)-4-di-n-propyloxyphosphinylmethylbenzene]
[1]
  activation at 10 µg/heart: 65.1 ± 12.2%
[2]
  LD50 at 72 h: > 2250 mg/kg

## CCOP(=O)(Cc1ccc(-c2nc3ccccc3s2)cc1)OCC [1-(benzothiazol-2-yl)-4-diethoxyphosphinylmethylbenzene]
[3]
  Kb: 120 nM
[1]
  activation at 10 µg/heart: 83.8 ± 9%
[4]
  Change in heart rate (Δbeats/min. ± standard error): -11.2 ± 2.1 Δbeats/min.
  Increase in coronary senus outflow (Δ% ± standard error): 42.8 ± 6.2 Δ%
  Mean change in blood pressure (ΔmmHg ± standard error): -10.0 ± 3.6 ΔmmHg
[2]
  LD50 at 72 h: 962 mg/kg

## COP(=O)(Cc1ccc(-c2nc3ccccc3s2)cc1)OC [1-(benzothiazol-2-yl)-4-dimethoxyphosphinylmethylbenzene]
[1]
  activation at 10 µg/heart: 38.5 ± 13.6%
[2]
  LD50 at 72 h: 1070 mg/kg

## CC(C)OP(=O)(Cc1ccc(-c2nc3ccccc3s2)nc1)OC(C)C [2-(benzothiazol-2-yl)-5-di-iso-propyloxyphosphinylmethylpyridine]
Taenia coli; test compound 1 × 10^-6 g/ml
  Kb: 2570 nM
[1]
  activation at 10 µg/heart: 79.9 ± 13.1%
[2]
  LD50 at 72 h: > 2250 mg/kg

## CCCCOP(=O)(Cc1ccc(-c2nc3ccccc3s2)nc1)OCCCC [2-(benzothiazol-2-yl)-5-di-n-butyloxyphosphinylmethylpyridine]
Taenia coli; test compound 1 × 10^-6 g/ml
  Kb: 4070 nM
[1]
  activation at 10 µg/heart: 50.3 ± 10.8%

## CCCOP(=O)(Cc1ccc(-c2nc3ccccc3s2)nc1)OCCC [2-(benzothiazol-2-yl)-5-di-n-propyloxyphosphinylmethylpyridine]
Taenia coli; test compound 1 × 10^-6 g/ml
  Kb: 1120 nM
[1]
  activation at 10 µg/heart: 66 ± 21.6%
[2]
  LD50 at 72 h: 713 mg/kg

## CCOP(=O)(Cc1ccc(-c2nc3ccccc3s2)nc1)OCC [2-(benzothiazol-2-yl)-5-diethoxyphosphinylmethylpyridine]
[3]
  Kb: 37.2 nM
[1]
  activation at 10 µg/heart: 98.6 ± 10.6%
[4]
  Change in heart rate (Δbeats/min. ± standard error): -16.3 ± 3.2 Δbeats/min.
  Increase in coronary senus outflow (Δ% ± standard error): 74.4 ± 7.3 Δ%
  Mean change in blood pressure (ΔmmHg ± standard error): -14.5 ± 5.4 ΔmmHg
[5]; [6]
  Change in heart rate (Δbeats/min. ± standard error): -5.6 ± 1.2 Δbeats/min.
  Increase in blood flow through circumflex branch of left coronary (Δ% ± standard error): 14.3 ± 7.4 Δ%
  Mean change in blood pressure (ΔmmHg ± standard error): -12.9 ± 3.4 ΔmmHg
[5]; [7]
  Change in heart rate (Δbeats/min. ± standard error): -23.3 ± 3.8 Δbeats/min.
  Increase in blood flow through circumflex branch of left coronary (Δ% ± standard error): 37.7 ± 9.6 Δ%
  Mean change in blood pressure (ΔmmHg ± standard error): -12.4 ± 2.3 ΔmmHg
[5]; [8]
  Change in heart rate (Δbeats/min. ± standard error): -26.9 ± 3.8 Δbeats/min.
  Increase in blood flow through circumflex branch of left coronary (Δ% ± standard error): 54.4 ± 11.3 Δ%
  Mean change in blood pressure (ΔmmHg ± standard error): -11.0 ± 3.5 ΔmmHg
[5]; [9]
  Change in heart rate (Δbeats/min. ± standard error): -26.4 ± 3.8 Δbeats/min.
  Increase in blood flow through circumflex branch of left coronary (Δ% ± standard error): 50.7 ± 12.7 Δ%
  Mean change in blood pressure (ΔmmHg ± standard error): -11.2 ± 3.9 ΔmmHg
[2]
  LD50 at 72 h: 1060 mg/kg

## COP(=O)(Cc1ccc(-c2nc3ccccc3s2)nc1)OC [2-(benzothiazol-2-yl)-5-dimethoxyphosphinylmethylpyridine]
[1]
  activation at 10 µg/heart: 28.6 ± 3.8%

## COc1ccc([C@@H]2Sc3ccccc3N(CCN(C)C)C(=O)[C@@H]2OC(C)=O)cc1 [Diltiazem, reference compound]
[1]
  activation at 10 µg/heart: 66 ± 7.1%
[4]
  Change in heart rate (Δbeats/min. ± standard error): -20.5 ± 7.8 Δbeats/min.
  Increase in coronary senus outflow (Δ% ± standard error): 67.9 ± 8.5 Δ%
  Mean change in blood pressure (ΔmmHg ± standard error): -21.4 ± 6.1 ΔmmHg
[5]; [6]
  Change in heart rate (Δbeats/min. ± standard error): 1.6 ± 2.0 Δbeats/min.
  Increase in blood flow through circumflex branch of left coronary (Δ% ± standard error): 1.8 ± 1.8 Δ%
  Mean change in blood pressure (ΔmmHg ± standard error): -2.4 ± 1.3 ΔmmHg
[5]; [7]
  Change in heart rate (Δbeats/min. ± standard error): -13.2 ± 1.2 Δbeats/min.
  Increase in blood flow through circumflex branch of left coronary (Δ% ± standard error): 34.4 ± 8.2 Δ%
  Mean change in blood pressure (ΔmmHg ± standard error): -11.0 ± 1.3 ΔmmHg
[5]; [8]
  Increase in blood flow through circumflex branch of left coronary (Δ% ± standard error): 33.0 ± 12.2 Δ%
  Mean change in blood pressure (ΔmmHg ± standard error): -14.4 ± 2.3 ΔmmHg
[5]; [9]
  Change in heart rate (Δbeats/min. ± standard error): -23.6 ± 4.0 Δbeats/min.
  Increase in blood flow through circumflex branch of left coronary (Δ% ± standard error): 34.8 ± 15.1 Δ%
  Mean change in blood pressure (ΔmmHg ± standard error): -16.0 ± 4.7 ΔmmHg

From patent US4232010A, “Calcium-antagonistic composition” (Kanebo, Ltd., priority 1978, dated 1980)
